# Values quoted from earlier work in patent US20160175250A1, “Method for Making Liposomes Containing an Active Pharmaceutical Ingredient” (Tolmar Inc., priority 2014, published 2016).
# Conditions: patients receiving doses greater than 550 mg per square meter of body area
smiles,measurement,value
"COc1cccc2c1C(=O)c1c(O)c3c(c(O)c1C2=O)C[C@@](O)(C(=O)CO)C[C@@H]3O[C@H]1C[C@H](N)[C@H](O)[C@H](C)O1 [doxorubicin, Doxorubicin]","congestive heart failure from cumulative dose dependent irreversible cardiomyopathy, share of patients",1-10%
